Assay results from patent US4010264A, “7-[3-Substituted isoxazol-5-yl]-acetamido-cephalosporanic acids and their anti-bacterial use” (Koninklijke Nederlandsche Gist-en Spiritusfabriek N.V., priority 1970, dated 1977).
Converted amounts (≈) assume the structure as drawn. Where a name gives a salt, the structure may show the parent alone. Read-outs that look alike come from different tables or passages of the source.

Legend:
[1] = system: Bacillus subtilis ATCC 6633; assay: MIC, agar serial dilution test; assay type: cell-based
[2] = system: Staphylococcus aureus A55; assay: MIC, agar serial dilution test; assay type: cell-based
[3] = system: Streptococcus faecalis L 80; assay: MIC, agar serial dilution test; assay type: cell-based; conditions: Enterococcus faecalis
[4] = system: Staphylococcus aureus L160a (penicillinase-producing); assay: MIC, agar serial dilution test; conditions: 24 h
[5] = system: Diplococcus pneumoniae L 54; assay: MIC, agar serial dilution test; assay type: cell-based; conditions: Streptococcus pneumoniae
[6] = system: Staphylococcus aureus A321; assay: MIC, agar serial dilution test; assay type: cell-based
[7] = system: Staphylococcus aureus A355 (penicillinase-producing); assay: MIC, agar serial dilution test; conditions: 24 h
[8] = system: Streptococcus haemolyticus A266; assay: MIC, agar serial dilution test; assay type: cell-based
[9] = system: Brucella melitensis A488; assay: microbe, parasite or virus in culture; assay type: cell-based; conditions: A488, 24 h
[10] = system: Pasteurella multocida A723; assay: MIC, agar serial dilution test; assay type: cell-based
[11] = system: Klebsiella pneumoniae A809; assay: MIC, agar serial dilution test; assay type: cell-based
[12] = ATCC6633, Bacillus subtilis ATCC 6633, 24 hours at 37° C, read-out: MIC
[13] = Staphylococcus aureus A55, 24 hours at 37° C, read-out: MIC
[14] = L80, Streptococcus faecalis L 80, 24 hours at 37° C, read-out: MIC
[15] = L54, Diplococcus pneumoniae L 54, 24 hours at 37° C, read-out: MIC
[16] = Staphylococcus aureus A321, 24 hours at 37° C, read-out: MIC
[17] = Streptococcus haemolyticus A266, 24 hours at 37° C, read-out: MIC
[18] = Pasteurella multocida A723, 24 hours at 37° C, read-out: MIC
[19] = Klebsiella pneumoniae A809, 24 hours at 37° C, read-out: MIC

## CC(=O)OCC1=C(C(=O)O)N2C(=O)C(NC(=O)Cc3onc(-c4c(C)cc(C)cc4C)c3C)C2SC1 (centres unmarked) [XII, Sodium salt of 7-{[3-(2,4,6-trimethyl)phenyl-4-methyl-isoxazol-5-yl]acetamido}cephalosporanic acid]
[1]; [12]
  MIC: 0.06 µg/mL
[2]; [13]
  MIC: 0.25 µg/mL
[3]; [14]
  MIC: 6 µg/mL
[4]
  MIC: 0.25 µg/mL
[5]; [15]
  MIC: 0.06 µg/mL
[6]; [16]
  MIC: 0.12 µg/mL
[7]
  MIC: 0.25 µg/mL
[8]; [17]
  MIC: 0.06 µg/mL
[9]
  MIC: 50 µg/mL
[10]; [18]
  MIC: 100 µg/mL
[11]; [19]
  MIC: > 100 µg/mL

## CC(=O)OCC1=C(C(=O)[O-])N2C(=O)C(NC(=O)Cc3onc(C)c3Cl)[C@H]2SC1.[Na+] (some centres unmarked) [XXXV, Sodium 7{[3-methyl-4-chloroisoxazole-5 yl]acetamido}-3-acetoxymethyl-3-cephem-4carboxylate]
[1]; Bacillus subtilis, ATCC6633, 24 h
  MIC: 0.06 µg/mL
[2]; Staphylococcus aureus, A55, 24 h
  MIC: 0.25 µg/mL
[3]; L80, 24 h
  MIC: 25 µg/mL
[4]
  MIC: 0.5 µg/mL
[5]; L54, 24 h
  MIC: 1 µg/mL
[6]; Staphylococcus aureus, A321, 24 h
  MIC: 0.25 µg/mL
[7]
  MIC: 0.5 µg/mL
[8]; Streptococcus, A266, 24 h
  MIC: 0.06 µg/mL
[9]
  MIC: 0.06 µg/mL
[10]; Pasteurella multocida, A723, 24 h
  MIC: 0.75 µg/mL
[11]; Klebsiella pneumoniae, A809, 24 h
  MIC: 1.5 µg/mL

## CC(=O)OCC1=C(C(=O)O)N2C(=O)C(NC(=O)Cc3cc(C(C)(C)C)no3)C2SC1 (centres unmarked) [XXXIV, sodium 7-[3-(t-butyl)isoxazole-5-ylacetamido]-3-acetoxymethyl 3-cephem-4-carboxylate]
[1]; [12]
  MIC: 0.75 µg/mL
[3]; [14]
  MIC: 12.5 µg/mL
[5]; [15]
  MIC: 0.25 µg/mL
[6]; [16]
  MIC: 1.5 µg/mL
[7]
  MIC: 1.5 µg/mL
[10]; [18]
  MIC: 3 µg/mL
[11]; [19]
  MIC: 12.5 µg/mL

## CC1(C)SC2C(NC(=O)Cc3onc(-c4c(Cl)cccc4Cl)c3C(N)=O)C(=O)N2C1C(=O)O (centres unmarked) [XIV, 6-{[3-(2,6-dichloro)phenyl-4-carbamyl-isoxazol-5-yl]acetamido} penicillanic acid]
[1]; [12]
  MIC: 3 µg/mL (≈ 5.84 µM)
[2]; [13]
  MIC: 12.5 µg/mL (≈ 24.3 µM)
[3]; [14]
  MIC: 50 µg/mL (≈ 97.4 µM)
[4]
  MIC: > 100 µg/mL
[5]; [15]
  MIC: 6 µg/mL (≈ 11.7 µM)
[6]; [16]
  MIC: 12.5 µg/mL (≈ 24.3 µM)
[7]
  MIC: > 100 µg/mL
[8]; [17]
  MIC: 1.5 µg/mL (≈ 2.92 µM)
[9]
  MIC: 50 µg/mL (≈ 97.4 µM)
[10]; [18]
  MIC: 50 µg/mL (≈ 97.4 µM)
[11]; [19]
  MIC: > 100 µg/mL

## CC1(C)SC2C(NC(=O)C(C(N)=O)c3cc(-c4c(Cl)cccc4Cl)no3)C(=O)N2C1C(=O)O (stereo not drawn) [Example XX, 6-{α-carbamyl-[3-(2,6-dichloro)phenyl-isoxazol-5-yl]acetamido} penicillanic acid]
[1]; [12]
  MIC: 0.25 µg/mL (≈ 0.487 µM)
[2]; [13]
  MIC: 0.25 µg/mL (≈ 0.487 µM)
[3]; [14]
  MIC: 0.5 µg/mL (≈ 0.974 µM)
[4]
  MIC: 3 µg/mL (≈ 5.84 µM)
[5]; [15]
  MIC: 0.06 µg/mL (≈ 0.117 µM)
[6]; [16]
  MIC: 0.25 µg/mL (≈ 0.487 µM)
[7]
  MIC: 3 µg/mL (≈ 5.84 µM)
[8]; [17]
  MIC: 0.03 µg/mL (≈ 0.0584 µM)
[9]
  MIC: 3 µg/mL (≈ 5.84 µM)
[10]; [18]
  MIC: 6 µg/mL (≈ 11.7 µM)
[11]; [19]
  MIC: > 100 µg/mL

## CC1(C)SC2C(NC(=O)C(NC(=O)OCc3ccc([N+](=O)[O-])cc3)c3cc(-c4c(Cl)cccc4Cl)no3)C(=O)N2C1C(=O)O (stereo not drawn) [Example XVII, 6-{-α-p-nitro-benzyloxycarbonylamino-[3-(2,6-dichloro)phenylisoxazol-5-yl]acetamido}penicillanic acid]
[1]; [12]
  MIC: 0.5 µg/mL (≈ 0.752 µM)
[2]; [13]
  MIC: 1 µg/mL (≈ 1.5 µM)
[3]; [14]
  MIC: 3 µg/mL (≈ 4.51 µM)
[4]
  MIC: 6 µg/mL (≈ 9.03 µM)
[5]; [15]
  MIC: 0.5 µg/mL (≈ 0.752 µM)
[6]; [16]
  MIC: 1 µg/mL (≈ 1.5 µM)
[7]
  MIC: 12.5 µg/mL (≈ 18.8 µM)
[8]; [17]
  MIC: 0.06 µg/mL (≈ 0.0903 µM)
[9]
  MIC: 25 µg/mL (≈ 37.6 µM)
[10]; [18]
  MIC: 50 µg/mL (≈ 75.2 µM)
[11]; [19]
  MIC: > 100 µg/mL

## CC1(C)SC2C(NC(=O)Cc3cc(C45CC6CC(CC(C6)C4)C5)no3)C(=O)N2C1C(=O)O (centres unmarked) [Example XVI, Sodium salt of 6-{[3-(1)adamantyl-isoxazol-5-yl]acetamido} penicillanic acid]
[1]; [12]
  MIC: 0.03 µg/mL
[2]; [13]
  MIC: 0.5 µg/mL
[3]; [14]
  MIC: 0.25 µg/mL
[4]
  MIC: 12.5 µg/mL
[5]; [15]
  MIC: 0.06 µg/mL
[6]; [16]
  MIC: 0.03 µg/mL
[7]
  MIC: 12.5 µg/mL
[8]; [17]
  MIC: < 0.015 µg/mL
[9]
  MIC: 3 µg/mL
[10]; [18]
  MIC: 6 µg/mL
[11]; [19]
  MIC: > 100 µg/mL

## CC1=C(C(=O)O)N2C(=O)C(NC(=O)Cc3onc(-c4c(Cl)cccc4Cl)c3C)C2SC1 (centres unmarked) [VIII, 7-{[3-(2,6-dichloro)phenyl-4-methyl-isoxazol-5-yl]acetamidodesacetoxycephalosporanic}acid]
[1]; [12]
  MIC: 0.25 µg/mL (≈ 0.518 µM)
[2]; [13]
  MIC: 1.5 µg/mL (≈ 3.11 µM)
[3]; [14]
  MIC: 100 µg/mL (≈ 207 µM)
[4]
  MIC: 3 µg/mL (≈ 6.22 µM)
[5]; [15]
  MIC: 1 µg/mL (≈ 2.07 µM)
[6]; [16]
  MIC: 0.5 µg/mL (≈ 1.04 µM)
[7]
  MIC: 3 µg/mL (≈ 6.22 µM)
[8]; [17]
  MIC: 0.25 µg/mL (≈ 0.518 µM)
[9]
  MIC: 12.5 µg/mL (≈ 25.9 µM)
[10]; [18]
  MIC: 100 µg/mL (≈ 207 µM)
[11]; [19]
  MIC: > 100 µg/mL

## CC1=C(C(=O)O)N2C(=O)C(NC(=O)Cc3onc(-c4c(C)cc(C)cc4C)c3C)C2SC1 (centres unmarked) [XIII, Sodium salt of 7-{[3-(2,4,6-trimethyl)phenyl-4-phenyl-methyl-isoxazol-5-yl]acetamido}desacetoxycephalosporanic acid]
[1]; [12]
  MIC: 1 µg/mL
[2]; [13]
  MIC: 3 µg/mL
[3]; [14]
  MIC: 100 µg/mL
[4]
  MIC: 6 µg/mL
[5]; [15]
  MIC: 1.5 µg/mL
[6]; [16]
  MIC: 1.5 µg/mL
[7]
  MIC: 6 µg/mL
[8]; [17]
  MIC: 0.6 µg/mL
[9]
  MIC: > 100 µg/mL
[10]; [18]
  MIC: > 100 µg/mL
[11]; [19]
  MIC: > 100 µg/mL
